Laboratory results reported in doi:10.1101/2025.06.29.662197v2 (biorxiv, 2026).
pIC50: −log10 of the molar value.

How the values were obtained:
Assay type in all cases: biochemical
[1] = target: human HRI (Carna Bioscience # 05-154) (Homo sapiens, UniProt Q9BQI3); assay: LanthaScreen TR-FRET kinase assay, GFP-eIF2alpha
[2] = target: human PKR (Carna Bioscience # 05-156) (Homo sapiens, UniProt P19525); assay: LanthaScreen TR-FRET kinase assay, GFP-eIF2alpha
[3] = target: human GCN2 (full length, purified; Carna Bioscience # 05-153) (Homo sapiens, UniProt Q9P2K8); assay: LanthaScreen TR-FRET kinase assay, GFP-eIF2alpha
[4] = target: full-length human GCN2 (N-terminal twin StrepII tag) (Homo sapiens, UniProt Q9P2K8); assay: in vitro kinase assay, immunoblot of p-Ser51 eIF2alpha; details: 100 uM ATP, 2 uM full-length eIF2alpha, 30 °C, 20 min, no tRNA
Sequence of full-length human GCN2 (N-terminal twin StrepII tag) (Q9P2K8 whole entry): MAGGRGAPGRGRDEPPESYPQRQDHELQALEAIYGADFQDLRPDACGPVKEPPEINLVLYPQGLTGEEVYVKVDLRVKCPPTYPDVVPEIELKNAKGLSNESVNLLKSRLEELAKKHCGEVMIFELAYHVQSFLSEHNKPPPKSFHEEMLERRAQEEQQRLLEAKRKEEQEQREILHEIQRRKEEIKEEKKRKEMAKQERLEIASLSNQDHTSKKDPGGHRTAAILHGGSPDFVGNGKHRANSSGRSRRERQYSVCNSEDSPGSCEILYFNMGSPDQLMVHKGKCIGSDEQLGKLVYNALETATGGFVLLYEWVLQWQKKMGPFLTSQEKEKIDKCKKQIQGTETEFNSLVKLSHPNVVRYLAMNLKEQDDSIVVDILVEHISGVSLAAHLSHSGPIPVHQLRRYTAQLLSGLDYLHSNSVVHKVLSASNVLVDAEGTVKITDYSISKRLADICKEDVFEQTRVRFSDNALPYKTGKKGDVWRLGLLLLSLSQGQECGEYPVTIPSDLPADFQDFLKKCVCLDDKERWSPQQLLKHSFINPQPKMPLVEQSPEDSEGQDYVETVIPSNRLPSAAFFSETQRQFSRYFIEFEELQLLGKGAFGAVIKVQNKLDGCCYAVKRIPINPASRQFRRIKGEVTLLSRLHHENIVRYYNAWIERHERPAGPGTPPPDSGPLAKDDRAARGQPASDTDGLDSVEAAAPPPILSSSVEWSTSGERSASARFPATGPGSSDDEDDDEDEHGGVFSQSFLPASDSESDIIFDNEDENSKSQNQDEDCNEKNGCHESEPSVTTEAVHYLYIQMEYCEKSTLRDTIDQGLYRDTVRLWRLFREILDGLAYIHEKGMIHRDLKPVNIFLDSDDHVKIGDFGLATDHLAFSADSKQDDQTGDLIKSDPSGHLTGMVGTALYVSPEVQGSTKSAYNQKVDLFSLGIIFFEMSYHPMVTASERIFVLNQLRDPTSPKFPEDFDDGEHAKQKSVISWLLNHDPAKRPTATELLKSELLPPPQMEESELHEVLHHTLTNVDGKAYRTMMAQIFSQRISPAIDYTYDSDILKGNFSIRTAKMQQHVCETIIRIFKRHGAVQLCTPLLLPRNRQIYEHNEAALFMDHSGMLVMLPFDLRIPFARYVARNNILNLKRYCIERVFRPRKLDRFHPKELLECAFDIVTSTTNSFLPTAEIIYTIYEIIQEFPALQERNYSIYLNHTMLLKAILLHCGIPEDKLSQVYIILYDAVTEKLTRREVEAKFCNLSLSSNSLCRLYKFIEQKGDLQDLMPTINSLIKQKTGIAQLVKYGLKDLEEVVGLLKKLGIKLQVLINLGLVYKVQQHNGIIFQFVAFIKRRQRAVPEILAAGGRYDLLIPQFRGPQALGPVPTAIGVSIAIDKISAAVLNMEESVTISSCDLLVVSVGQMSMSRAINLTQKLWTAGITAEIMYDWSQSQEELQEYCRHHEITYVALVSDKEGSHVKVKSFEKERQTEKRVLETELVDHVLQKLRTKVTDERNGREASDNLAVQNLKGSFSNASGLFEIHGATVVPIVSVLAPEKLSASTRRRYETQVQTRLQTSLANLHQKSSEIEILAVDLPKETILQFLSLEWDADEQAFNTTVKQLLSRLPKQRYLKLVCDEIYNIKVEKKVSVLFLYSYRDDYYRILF

Sequence of human PKR (Carna Bioscience # 05-156) (P19525 2-551): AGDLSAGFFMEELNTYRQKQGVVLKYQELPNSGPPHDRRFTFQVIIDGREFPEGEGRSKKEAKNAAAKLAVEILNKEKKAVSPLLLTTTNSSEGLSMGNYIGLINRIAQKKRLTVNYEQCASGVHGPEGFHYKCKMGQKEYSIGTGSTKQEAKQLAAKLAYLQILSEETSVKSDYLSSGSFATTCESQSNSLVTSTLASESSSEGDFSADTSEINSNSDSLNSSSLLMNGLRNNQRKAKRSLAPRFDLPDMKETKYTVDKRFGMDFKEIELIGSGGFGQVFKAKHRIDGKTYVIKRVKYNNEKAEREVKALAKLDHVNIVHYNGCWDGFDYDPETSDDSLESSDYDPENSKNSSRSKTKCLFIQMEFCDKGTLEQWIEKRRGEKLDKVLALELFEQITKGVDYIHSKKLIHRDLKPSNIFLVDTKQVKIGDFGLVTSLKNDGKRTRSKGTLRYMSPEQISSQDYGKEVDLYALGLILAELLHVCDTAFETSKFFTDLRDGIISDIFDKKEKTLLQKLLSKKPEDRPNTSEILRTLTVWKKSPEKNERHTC
Sequence of human GCN2 (full length, purified; Carna Bioscience # 05-153) (Q9P2K8 whole entry): as the sequence (Q9P2K8 whole entry) above
Sequence of human HRI (Carna Bioscience # 05-154) (Q9BQI3 whole entry): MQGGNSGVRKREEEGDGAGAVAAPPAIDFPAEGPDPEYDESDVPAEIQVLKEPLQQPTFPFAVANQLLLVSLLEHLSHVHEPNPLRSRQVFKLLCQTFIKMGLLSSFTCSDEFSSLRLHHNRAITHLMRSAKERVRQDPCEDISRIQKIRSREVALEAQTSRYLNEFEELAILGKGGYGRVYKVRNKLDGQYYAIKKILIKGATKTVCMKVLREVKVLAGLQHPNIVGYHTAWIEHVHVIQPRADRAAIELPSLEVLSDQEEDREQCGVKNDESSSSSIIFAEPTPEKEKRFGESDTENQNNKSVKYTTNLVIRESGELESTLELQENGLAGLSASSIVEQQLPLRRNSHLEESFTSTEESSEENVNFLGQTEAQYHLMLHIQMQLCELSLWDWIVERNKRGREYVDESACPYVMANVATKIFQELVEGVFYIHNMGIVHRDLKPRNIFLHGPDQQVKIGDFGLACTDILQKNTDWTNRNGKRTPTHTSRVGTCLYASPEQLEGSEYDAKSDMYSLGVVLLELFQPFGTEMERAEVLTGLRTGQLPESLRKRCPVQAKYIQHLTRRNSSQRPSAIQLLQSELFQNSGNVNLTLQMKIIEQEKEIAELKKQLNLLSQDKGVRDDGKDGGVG

COc1ncc(Cl)cc1S(=O)(=O)Nc1ccc(F)c(C#Cc2cnc(N)nc2)c1F [GCN2iB]
pIC50 [1]: 8.56
pIC50 [2]: 5.49
pIC50 [3]: 8.81

Cc1nn(-c2ccccc2)c2sc(C(=O)Nc3ccc(S(=O)(=O)NCc4ccco4)cc3)cc12 [compound 18, N-(4-{[(furan-2-yl)methyl]sulfamoyl}phenyl)-3-methyl-1-phenyl-1H-thieno[2,3-c]pyrazole-5-carboxamide]
pIC50 [2]: 5.35
pIC50 [3]: < 5.52

Cc1nc(N)sc1-c1csc(Nc2ncccn2)n1 [compound 20, 4’-methyl-N∼2∼-2-pyrimidinyl-4,5’-bi-1,3-thiazole-2,2’-diamine]
fold activation [4]: ~ 40 fold
pIC50 [2]: 5.43
pIC50 [3]: < 5.52

CS(=O)(=O)c1ncc(-c2ccc(Br)cc2)cn1 [compound 21, 5-(4-bromophenyl)-2-(methylsulfonyl)pyrimidine]
pIC50 [3]: < 5.52
